The record followed here is patent US7884107B2, “Substituted piperidines that increase P53 activity and the uses thereof” (Merck, priority 2006, dated 2011).

In this assay the target is HDM2 protein (Homo sapiens, UniProt Q00987). In words: fluorescence polarization screening assay (FP). The class given is binding. The conditions noted are these: inhibitory concentration that achieves 50% of maximal activity.
HDM2 protein, sequence (Q00987 whole entry): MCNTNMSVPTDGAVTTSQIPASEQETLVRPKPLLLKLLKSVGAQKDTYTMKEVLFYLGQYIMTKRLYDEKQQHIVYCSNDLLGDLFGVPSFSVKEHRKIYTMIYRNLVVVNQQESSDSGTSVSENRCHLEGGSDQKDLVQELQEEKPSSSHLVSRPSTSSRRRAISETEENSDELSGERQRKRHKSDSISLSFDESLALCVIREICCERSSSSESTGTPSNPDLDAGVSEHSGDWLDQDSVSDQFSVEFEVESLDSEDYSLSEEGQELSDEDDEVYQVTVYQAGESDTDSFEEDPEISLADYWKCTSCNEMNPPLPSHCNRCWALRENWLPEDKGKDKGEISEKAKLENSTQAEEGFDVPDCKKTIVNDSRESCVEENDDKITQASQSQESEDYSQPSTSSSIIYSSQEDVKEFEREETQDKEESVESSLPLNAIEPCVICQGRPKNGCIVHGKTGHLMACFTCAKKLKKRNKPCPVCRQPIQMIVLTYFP

In general, IC50 refers to the point on the concentration scale where inhibition reaches its midpoint. A higher IC50 goes with a need for much substance. Molecule `CC(=O)Nc1ccccc1N1CCN(C(=O)C2(Oc3ccc(Br)c(F)c3)CCCN(C(=O)c3cnccc3C(F)(F)F)C2)CC1` (centres unmarked) [AU] showed an IC50 of 510 nM.

Molecule `COc1ccccc1N1CCN(C(=O)C2(Oc3ccc(C(F)(F)F)cc3)CCCN(C(=O)c3cnccc3C(F)(F)F)C2)C(C(=O)NCCO)C1` (centres unmarked) [CR] registered an IC50 of 950 nM. Compared with the last molecule, the IC50 is about 1.9-fold higher.
